The results in this text go back to article PMC7001764 (Cell reports, 2020).

For data set [1], the target named is T1, CAPN5-PC (calpain-5 protease core) (Homo sapiens, UniProt O15484).
T1 sequence (O15484 1-343): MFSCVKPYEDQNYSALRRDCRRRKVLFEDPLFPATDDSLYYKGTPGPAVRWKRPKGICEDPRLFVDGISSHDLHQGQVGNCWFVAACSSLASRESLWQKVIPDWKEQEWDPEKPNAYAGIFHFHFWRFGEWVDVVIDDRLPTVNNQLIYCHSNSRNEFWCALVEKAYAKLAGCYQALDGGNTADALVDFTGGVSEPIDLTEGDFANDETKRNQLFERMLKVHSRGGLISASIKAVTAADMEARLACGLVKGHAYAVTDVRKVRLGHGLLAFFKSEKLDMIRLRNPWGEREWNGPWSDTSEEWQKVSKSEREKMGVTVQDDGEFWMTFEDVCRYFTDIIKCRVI
Put plainly: inhibition of Ac-LLY-AFC hydrolysis by purified CAPN5-PC. Type of data set: biochemical.

Substrate in the data set “purified protein”: CC(=O)N[C@@H](CC(C)C)C(=O)N[C@@H](CC(C)C)C(=O)N[C@@H](Cc1ccc(O)cc1)C(=O)Nc1ccc2c(C(F)(F)F)cc(=O)oc2c1
Nature of the data set: purified protein. The settings on record: Ca2+ ([…]).

The IC50 is the concentration needed to halve the response being measured. Low values mean greater potency, high ones weaker potency. Molecule `CC(C)C[C@H](NC(=O)[C@H]1O[C@@H]1C(=O)O)C(=O)NCCCCN=C(N)N` [E-64] displayed a concentration for half-maximal inhibition (IC50) in data set [1] of 1200 ± 300 nM.

B1: CAPN5-PC (calpain-5 protease core) (Homo sapiens) (protein)
chain: T1 sequence (O15484 1-343)
On to B1, for which, in “purified protein”, the Km was 153 × 10^2 ± 38 μM.
